According to ChEMBL document CHEMBL3885881, “DrugMatrix”:

Species: Rattus norvegicus
Assay: DrugMatrix - Regimen: Daily Repeat
Format: toxicity, organism-based, Sprague-Dawley
Design: regimen Daily Repeat, gender Male, age 6-8 weeks
Settings: in vivo, po, route oral GAVAGE, vehicle 100 % SALINE; for GLUCOSE / LACTATE DEHYDROGENASE / LIPASE / PHOSPHORUS / SODIUM / TOTAL BILIRUBIN / TOTAL PROTEIN / ALANINE AMINOTRANSFERASE / ALBUMIN / ALKALINE PHOSPHATASE / ASPARTATE AMINOTRANSFERASE / BLOOD UREA NITROGEN / CARBON DIOXIDE / CHLORIDE / CHOLESTEROL / CREATINE PHOSPHOKINASE / CREATININE: tissue Plasma; for ABSOLUTE BASOPHIL / ABSOLUTE EOSINOPHIL / ABSOLUTE LYMPHOCYTE / ABSOLUTE MONOCYTE / ABSOLUTE SEGMENTED NEUTROPHIL / BASOPHIL / EOSINOPHIL / ERYTHROCYTE COUNT / HEMATOCRIT / HEMOGLOBIN / LEUKOCYTE COUNT / LYMPHOCYTE / MEAN CORPUSCULAR HEMOGLOBIN / MEAN CORPUSCULAR HEMOGLOBIN CONCENTRATION / MONOCYTE / NEUTROPHIL / NUCLEATED RED BLOOD CELLS / PLATELET COUNT: tissue Blood
[1] = 0 mg/kg, […], dose level Control, time 7 day
[2] = 140 mg/kg, 72 h, dose level Low, time 3 day
[3] = 140 mg/kg, 120 h, dose level Low, time 5 day
[4] = 700 mg/kg, 72 h, dose level Low, time 3 day

`CN(C)C=O` [DIMETHYLFORMAMIDE] was tested, and the GLUCOSE [1] was 132.67 mg/dL, the “LACTATE DEHYDROGENASE” value [1] was 107.17 u/L and the LIPASE [1] was 10.5 u/L. For the same molecule, the PHOSPHORUS [1] was 10.47 mg/dL, the SODIUM [1] was 140.73 MEQ/L and the “TOTAL BILIRUBIN” value [1] was 0.12 mg/dL. For the same molecule, the “TOTAL PROTEIN” value [1] was 6.18 G/DL, the “ABSOLUTE BASOPHIL” value [2] was 0 CELLS/uL and the “ABSOLUTE EOSINOPHIL” value [2] was 31.33 CELLS/uL. For the same molecule, the “ABSOLUTE LYMPHOCYTE” value [2] was 5899.33 CELLS/uL, the “ABSOLUTE MONOCYTE” value [2] was 62.67 CELLS/uL and the “ABSOLUTE SEGMENTED NEUTROPHIL” value [2] was 306.67 CELLS/uL. The BASOPHIL [2] was 0%, the EOSINOPHIL [2] was 0.33% and the “ERYTHROCYTE COUNT” value [2] was 4.99 x10E6/uL. The HEMATOCRIT [2] was 31.43%, the HEMOGLOBIN [2] was 12.53 G/DL and the “LEUKOCYTE COUNT” value [2] was 6.3 x10E3/uL. The LYMPHOCYTE [2] was 94.67%, the “MEAN CORPUSCULAR HEMOGLOBIN” value [2] was 25.27 pg and the “MEAN CORPUSCULAR HEMOGLOBIN CONCENTRATION” value [2] was 40.07 G/DL. For the same molecule, the MONOCYTE [2] was 0.67%, the NEUTROPHIL [2] was 4.33% and the “NUCLEATED RED BLOOD CELLS” value [2] was 0 /100WBC. The “PLATELET COUNT” value [2] was 734 x10E3/uL, the “ALANINE AMINOTRANSFERASE” value [2] was 52.67 u/L and the ALBUMIN [2] was 4.17 G/DL. The “ALKALINE PHOSPHATASE” value [2] was 264.67 u/L, the “ASPARTATE AMINOTRANSFERASE” value [2] was 88.67 u/L and the “BLOOD UREA NITROGEN” value [2] was 12.33 mg/dL. The “CARBON DIOXIDE” value [2] was 36.67 mmol/L, the CHLORIDE [2] was 97.33 MEQ/L and the CHOLESTEROL [2] was 97.67 mg/dL. For the same molecule, the “CREATINE PHOSPHOKINASE” value [2] was 161.33 u/L, the CREATININE [2] was 0.33 mg/dL and the GLUCOSE [2] was 208 mg/dL. The “LACTATE DEHYDROGENASE” value [2] was 181.33 u/L, the LIPASE [2] was 10.67 u/L and the PHOSPHORUS [2] was 11.23 mg/dL. The SODIUM [2] was 148.43 MEQ/L, the “TOTAL BILIRUBIN” value [2] was 0.2 mg/dL and the “TOTAL PROTEIN” value [2] was 6.1 G/DL. For the same molecule, the “ABSOLUTE BASOPHIL” value [3] was 0 CELLS/uL, the “ABSOLUTE EOSINOPHIL” value [3] was 0 CELLS/uL and the “ABSOLUTE LYMPHOCYTE” value [3] was 9653 CELLS/uL. For the same molecule, the “ABSOLUTE MONOCYTE” value [3] was 169 CELLS/uL, the “ABSOLUTE SEGMENTED NEUTROPHIL” value [3] was 644.67 CELLS/uL and the BASOPHIL [3] was 0%. For the same molecule, the EOSINOPHIL [3] was 0%, the “ERYTHROCYTE COUNT” value [3] was 6.77 x10E6/uL and the HEMATOCRIT [3] was 41.07%. For the same molecule, the HEMOGLOBIN [3] was 15.33 G/DL, the “LEUKOCYTE COUNT” value [3] was 10.47 x10E3/uL and the LYMPHOCYTE [3] was 93.33%. For the same molecule, the “MEAN CORPUSCULAR HEMOGLOBIN” value [3] was 22.63 pg, the “MEAN CORPUSCULAR HEMOGLOBIN CONCENTRATION” value [3] was 37.33 G/DL and the MONOCYTE [3] was 1.67%. For the same molecule, the NEUTROPHIL [3] was 5%, the “NUCLEATED RED BLOOD CELLS” value [3] was 0 /100WBC and the “PLATELET COUNT” value [3] was 1170.67 x10E3/uL. The “ALANINE AMINOTRANSFERASE” value [3] was 57.33 u/L, the ALBUMIN [3] was 4.4 G/DL and the “ALKALINE PHOSPHATASE” value [3] was 234.67 u/L. For the same molecule, the “ASPARTATE AMINOTRANSFERASE” value [3] was 93.67 u/L, the “BLOOD UREA NITROGEN” value [3] was 17.67 mg/dL and the “CARBON DIOXIDE” value [3] was 34.33 mmol/L. The CHLORIDE [3] was 96.33 MEQ/L, the CHOLESTEROL [3] was 111.33 mg/dL and the “CREATINE PHOSPHOKINASE” value [3] was 195.67 u/L. The CREATININE [3] was 0.19 mg/dL, the GLUCOSE [3] was 171.33 mg/dL and the “LACTATE DEHYDROGENASE” value [3] was 243 u/L. It also gave an LIPASE [3] of 11.33 u/L, a PHOSPHORUS [3] of 10.83 mg/dL and an SODIUM [3] of 145.97 MEQ/L. For the same molecule, the “TOTAL BILIRUBIN” value [3] was 0.13 mg/dL, the “TOTAL PROTEIN” value [3] was 6.67 G/DL and the “ABSOLUTE BASOPHIL” value [4] was 0 CELLS/uL. The “ABSOLUTE EOSINOPHIL” value [4] was 0 CELLS/uL, the “ABSOLUTE LYMPHOCYTE” value [4] was 7783.67 CELLS/uL and the “ABSOLUTE MONOCYTE” value [4] was 176.17 CELLS/uL. For the same molecule, the “ABSOLUTE SEGMENTED NEUTROPHIL” value [4] was 1123.5 CELLS/uL, the BASOPHIL [4] was 0% and the EOSINOPHIL [4] was 0%. The “ERYTHROCYTE COUNT” value [4] was 5.7 x10E6/uL, the HEMATOCRIT [4] was 37.75% and the HEMOGLOBIN [4] was 13.52 G/DL. The “LEUKOCYTE COUNT” value [4] was 9.08 x10E3/uL, the LYMPHOCYTE [4] was 86.17% and the “MEAN CORPUSCULAR HEMOGLOBIN” value [4] was 23.73 pg. The “MEAN CORPUSCULAR HEMOGLOBIN CONCENTRATION” value [4] was 35.83 G/DL, the MONOCYTE [4] was 1.83% and the NEUTROPHIL [4] was 12%. The “NUCLEATED RED BLOOD CELLS” value [4] was 0 /100WBC, the “PLATELET COUNT” value [4] was 951.67 x10E3/uL and the “ALANINE AMINOTRANSFERASE” value [4] was 77.33 u/L.
